Patent US7351861B2 (priority 2002, dated 2008)
Read-outs that look alike come from different tables or passages of the source.

Experiments:
Format in all cases: cell-based, Yersinia pseudotuberculosis
[1] = system: luciferase light signal from pIB29EL (yopE-luxAB); assay: microbe, parasite or virus in culture; details: pIB29EL; for Inhibition (%) of the luciferase light signal: Table 2A
[2] = system: luciferase light signal from pIB102AL (luxAB downstream of the promoter for YerA)
[3] = system: reporter gene signal from pIB102FL (lcrF-luxAB)
[4] = system: reporter gene signal from pIB102FΔhlhL (lcrFΔhlh-luxAB)
[5] = system: Yop secretion from the wild-type strain pIB102EL; details: for Inhibition of Yop secretion into the surrounding medium (in words): supernatant after 3 h at 37° C., Western analysis
[6] = system: luciferase light signal from pIB102EL (yopE-luxAB, wild-type); assay: microbe, parasite or virus in culture; details: for Inhibition (%) of the luciferase light signal: strain pIB102EL, Table 2C

| SMILES | Inhibition (%) of the luciferase light signal ([1]; 10 μM) | Inhibition (%) of the luciferase light signal ([1]; 20 μM) | Inhibition (%) of the luciferase light signal ([1]; 50 μM) | Inhibition (%) of the luciferase light signal ([1]; 100 μM) | Selectivity between pIB102EL (YopE promoter) and control strain pIB102AL (in words) [2] | Effect on reporter gene signal (in words) [3] | Effect on reporter gene signal (in words) [4] | Inhibition of Yop secretion into the surrounding medium (in words) [5] | Inhibition (%) of the luciferase light signal ([6]; 5 μM) | Inhibition (%) of the luciferase light signal ([6]; 10 μM) | Inhibition (%) of the luciferase light signal ([6]; 20 μM) | Inhibition (%) of the luciferase light signal ([6]; 50 μM) | Inhibition (%) of the luciferase light signal ([6]; 100 μM) | further results |
| --- | --- | --- | --- | --- | --- | --- | --- | --- | --- | --- | --- | --- | --- | --- |
| O=C(N/N=C/c1cc(Br)cc(Br)c1O)c1ccc([N+](=O)[O-])cc1 [Compound 3] | 12% | 48% | 85% | 86% | stronger inhibitory effect on the wild-type strain pIB102EL | enhance the reporter gene signal | more than doubled | efficiently inhibits Yop secretion in a dose dependent manner |  |  |  |  |  | Potency within the class of acylated hydrazones of salicylic aldehydes from primary screening (in words) [1]: most potent; Total Yop content, bacteria and surrounding media (in words) ([5]; various concentrations incl. 50 and 100 μM lanes, FIG. 6B): Yops can be observed at concentrations that completely inhibit secretion |
| CC(=O)Oc1c(I)cc(I)cc1C(=O)Nc1ccc(Cl)cc1 [Compound 4, 2-acetoxy-4′-chloro-3,5-diiodobenzanilide] |  |  |  |  | no selectivity | inhibits the reporter gene signal | inhibits the reporter gene signal | dose dependent inhibition of secretion |  |  |  |  |  | inhibition at 5 µM ([1]; Yersinia pseudotuberculosis, read-out: Inhibition (%) of the luciferase light signal, 5 μM (first of two columns headed 5), Table 2B): 15%; inhibition at 5 µM ([1]; Yersinia pseudotuberculosis, read-out: Inhibition (%) of the luciferase light signal, 5 μM (second of two columns headed 5), Table 2B): 45%; inhibition at 10 µM ([1]; Yersinia pseudotuberculosis, read-out: Inhibition (%) of the luciferase light signal, 10 μM, Table 2B): 81%; inhibition at 20 µM ([1]; Yersinia pseudotuberculosis, read-out: Inhibition (%) of the luciferase light signal, 20 μM, Table 2B): 96%; Effect on reporter gene signal (in words) ([6]; pIB102EL, FIG. 5C): inhibits the reporter gene signal; Effect on reporter gene signal (in words) [2]: inhibits the reporter gene signal |
| O=C(Nc1ccc(Cl)c(Cl)c1)c1cc(Cl)ccc1NS(=O)(=O)c1cccc2nsnc12 [Compound 5] | 35% | 60% | 69% | 66% | stronger inhibitory effect on the wild-type strain pIB102EL | minor inhibition | modest enhancement | dose dependent inhibition of secretion |  |  |  |  |  |  |
| O=C(N/N=C/c1cc(Br)ccc1O)c1cccnc1 [Compound 42] |  |  |  |  |  |  |  |  | 0% | 9% | 16% | 49% | 59% |  |
| CCOc1cccc(/C=N/NC(=O)c2ccc(Cl)cc2)c1O [Compound 43] |  |  |  |  |  |  |  |  | 0% | 6% | 12% | 22% | 34% |  |
| Nc1ccc(C(=O)N/N=C/c2c(O)ccc3ccccc23)cc1 [Compound 44] |  |  |  |  |  |  |  |  | 3% | 10% | 15% | 23% | 30% |  |
